Results: the NIST ThermoML archive (doi:10.1016/j.jct.2010.05.002)
Numbers after ± are expanded uncertainties.

Columns and labels:
[1] = Molar enthalpy of transition or fusion; details: Crystal; Adiabatic calorimetry
[2] = for vapor or sublimation pressure: Transpiration method; for Triple point temperature: Adiabatic calorimetry

Cc1ccc(-c2ccccc2)cc1 [4-methylbiphenyl]
Molar enthalpy of transition or fusion [1]: 2.94 ± 0.0669 kcal/mol | vapor or sublimation pressure ([2]; 323.2 K, Liquid): 0.00854 ± 0.00045 kPa | vapor or sublimation pressure ([2]; 325.4 K, Liquid): 0.01016 ± 0.00053 kPa | vapor or sublimation pressure ([2]; 327.2 K, Liquid): 0.01156 ± 0.0006 kPa | vapor or sublimation pressure ([2]; 329.7 K, Liquid): 0.01376 ± 0.00072 kPa | vapor or sublimation pressure ([2]; 332.2 K, Liquid): 0.01664 ± 0.00087 kPa | vapor or sublimation pressure ([2]; 334.6 K, Liquid): 0.01979 ± 0.001 kPa | vapor or sublimation pressure ([2]; 336.2 K, Liquid): 0.02224 ± 0.0012 kPa | vapor or sublimation pressure ([2]; 338.7 K, Liquid): 0.02634 ± 0.0014 kPa | vapor or sublimation pressure ([2]; 341.6 K, Liquid): 0.03282 ± 0.0017 kPa | vapor or sublimation pressure ([2]; 344.1 K, Liquid): 0.03851 ± 0.002 kPa | vapor or sublimation pressure ([2]; 346.4 K, Liquid): 0.04496 ± 0.0023 kPa | vapor or sublimation pressure ([2]; 349 K, Liquid): 0.05244 ± 0.0027 kPa | vapor or sublimation pressure ([2]; 351.2 K, Liquid): 0.06003 ± 0.0031 kPa | vapor or sublimation pressure ([2]; 353.2 K, Liquid): 0.0695 ± 0.0036 kPa | Triple point temperature ([2]; Crystal): 320.33 ± 0.05 K

CC(C)(C)c1ccc(-c2ccccc2)cc1 [4-(1,1-dimethylethyl)-1,1'-biphenyl]
Molar enthalpy of transition or fusion [1]: 4.75 ± 0.163 kcal/mol | vapor or sublimation pressure ([2]; 301 K, Crystal): 8.2e-05 ± 5e-06 kPa | vapor or sublimation pressure ([2]; 303.9 K, Crystal): 0.000119 ± 7e-06 kPa | vapor or sublimation pressure ([2]; 305.9 K, Crystal): 0.000156 ± 9e-06 kPa | vapor or sublimation pressure ([2]; 307.9 K, Crystal): 0.000203 ± 1.1e-05 kPa | vapor or sublimation pressure ([2]; 310.9 K, Crystal): 0.000285 ± 1.6e-05 kPa | vapor or sublimation pressure ([2]; 312.9 K, Crystal): 0.000369 ± 2.1e-05 kPa | vapor or sublimation pressure ([2]; 313.8 K, Crystal): 0.000417 ± 2.3e-05 kPa | vapor or sublimation pressure ([2]; 315.8 K, Crystal): 0.000507 ± 2.8e-05 kPa | vapor or sublimation pressure ([2]; 318.8 K, Crystal): 0.000708 ± 3.9e-05 kPa | vapor or sublimation pressure ([2]; 319.8 K, Crystal): 0.000814 ± 4.5e-05 kPa | vapor or sublimation pressure ([2]; 320.2 K, Crystal): 0.000843 ± 4.7e-05 kPa | vapor or sublimation pressure ([2]; 321.7 K, Crystal): 0.001012 ± 5.6e-05 kPa | vapor or sublimation pressure ([2]; 322.7 K, Crystal): 0.001146 ± 6.3e-05 kPa | vapor or sublimation pressure ([2]; 323.2 K, Crystal): 0.001207 ± 6.7e-05 kPa | vapor or sublimation pressure ([2]; 325.2 K, Crystal): 0.0015 ± 8.1e-05 kPa | vapor or sublimation pressure ([2]; 326.2 K, Crystal): 0.00168 ± 9.1e-05 kPa | vapor or sublimation pressure ([2]; 327.4 K, Liquid): 0.00187 ± 0.0001 kPa | vapor or sublimation pressure ([2]; 331.5 K, Liquid): 0.00263 ± 0.00014 kPa | vapor or sublimation pressure ([2]; 334.4 K, Liquid): 0.00326 ± 0.00017 kPa | vapor or sublimation pressure ([2]; 336.6 K, Liquid): 0.00389 ± 0.0002 kPa | vapor or sublimation pressure ([2]; 338 K, Liquid): 0.00428 ± 0.00022 kPa | vapor or sublimation pressure ([2]; 338.8 K, Liquid): 0.00465 ± 0.00025 kPa | vapor or sublimation pressure ([2]; 340.5 K, Liquid): 0.00532 ± 0.00028 kPa | vapor or sublimation pressure ([2]; 341.6 K, Liquid): 0.00563 ± 0.0003 kPa | vapor or sublimation pressure ([2]; 343.7 K, Liquid): 0.00682 ± 0.00036 kPa | vapor or sublimation pressure ([2]; 343.8 K, Liquid): 0.00673 ± 0.00035 kPa | vapor or sublimation pressure ([2]; 346.6 K, Liquid): 0.00813 ± 0.00043 kPa | vapor or sublimation pressure ([2]; 347.2 K, Liquid): 0.00852 ± 0.00044 kPa | vapor or sublimation pressure ([2]; 347.6 K, Liquid): 0.00864 ± 0.00046 kPa | vapor or sublimation pressure ([2]; 348.8 K, Liquid): 0.00962 ± 0.0005 kPa | vapor or sublimation pressure ([2]; 349.8 K, Liquid): 0.0103 ± 0.00053 kPa | vapor or sublimation pressure ([2]; 350.4 K, Liquid): 0.0106 ± 0.00054 kPa | vapor or sublimation pressure ([2]; 352.8 K, Liquid): 0.01272 ± 0.00066 kPa | vapor or sublimation pressure ([2]; 354.8 K, Liquid): 0.01441 ± 0.00075 kPa | vapor or sublimation pressure ([2]; 357.4 K, Liquid): 0.01733 ± 0.0009 kPa | vapor or sublimation pressure ([2]; 360.2 K, Liquid): 0.02099 ± 0.0011 kPa | vapor or sublimation pressure ([2]; 362.6 K, Liquid): 0.025 ± 0.0013 kPa | vapor or sublimation pressure ([2]; 364.9 K, Liquid): 0.02919 ± 0.0015 kPa | vapor or sublimation pressure ([2]; 367.4 K, Liquid): 0.03524 ± 0.0018 kPa | vapor or sublimation pressure ([2]; 370 K, Liquid): 0.04103 ± 0.0021 kPa | vapor or sublimation pressure ([2]; 371.2 K, Liquid): 0.04325 ± 0.0022 kPa | vapor or sublimation pressure ([2]; 372.6 K, Liquid): 0.04776 ± 0.0025 kPa | vapor or sublimation pressure ([2]; 373.9 K, Liquid): 0.05134 ± 0.0027 kPa | vapor or sublimation pressure ([2]; 375.3 K, Liquid): 0.05672 ± 0.0029 kPa | vapor or sublimation pressure ([2]; 376.7 K, Liquid): 0.05953 ± 0.0031 kPa | vapor or sublimation pressure ([2]; 378 K, Liquid): 0.06614 ± 0.0035 kPa | Triple point temperature ([2]; Crystal): 324.76 ± 0.05 K
